Patent US10085971B2, “Pharmaceutical solution of asenapine for sublingual or buccal use” (Navinta III Inc, priority 2016, dated 2018)
Counter-ions that a name gives are not always drawn.

Assays:
[1] = oral dosing in human patients; cited from earlier work
[2] = Solubility in ethanol water mixture; type: physicochemical; conditions: both crystal forms

Row | SMILES | Side effects of oral dosing [1] | Solubility [2]
1 | CN1C[C@H]2c3ccccc3Oc3ccc(Cl)cc3[C@@H]2C1 (relative stereo) [Asenapine, trans-5-chloro-2-methyl-2,3,3a, 12b-tetrahydro-1 H-dibenz[2,3:6,7]oxepino-[4,5-c]pyrrole] | serious cardiotoxic side effects including postural hypotension | 
2 | CN1CC2c3ccccc3Oc3ccc(Cl)cc3C2C1 (centres unmarked) [Asenapine maleate] |  | good solubility
